In this assay the target is T1, B7-H3 (41 g) (Homo sapiens, UniProt Q5ZPR3).
T1 sequence (Q5ZPR3 29-534): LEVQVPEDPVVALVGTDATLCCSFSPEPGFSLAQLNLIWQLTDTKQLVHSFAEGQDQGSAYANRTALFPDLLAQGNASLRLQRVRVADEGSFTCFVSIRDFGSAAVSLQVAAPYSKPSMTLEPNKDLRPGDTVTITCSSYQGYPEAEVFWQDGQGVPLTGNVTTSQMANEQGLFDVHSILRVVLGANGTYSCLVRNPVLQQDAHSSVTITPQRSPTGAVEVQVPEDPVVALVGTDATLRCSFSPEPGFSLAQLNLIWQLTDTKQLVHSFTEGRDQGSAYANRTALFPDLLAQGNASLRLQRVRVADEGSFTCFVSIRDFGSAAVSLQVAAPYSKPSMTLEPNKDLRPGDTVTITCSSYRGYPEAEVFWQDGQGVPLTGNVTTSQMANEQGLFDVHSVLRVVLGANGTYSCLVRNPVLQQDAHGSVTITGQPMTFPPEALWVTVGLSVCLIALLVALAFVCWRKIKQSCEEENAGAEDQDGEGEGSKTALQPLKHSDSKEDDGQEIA
The experiment in a line: Binding of Compound 496 to B7-H3.

The text below walks through data of patent US20250205373A1, “ENRICHED AND STABLE RADIOLIGAND THERAPY FORMULATIONS AND PHARMACEUTICAL COMPOSITIONS COMPRISING SAME” (Mariana Oncology Inc., priority 2023, published 2025).

Numbered stars: 1 amine (or outer) side, 2 acyl side, 3 side chain; on linkers, the order of the positions; unused ones are H or OH. Bridge positions count the residues as written; N and C are the ends. Square brackets hold non-standard residues; d marks the D form. Side chains are listed from the residue outwards. Peptide text beside a SMILES is read from it. * marks the point of attachment. Ala(1-CH2CO2H-4-piperidyl) = N[C@@H](CC1CCN(CC(=O)O)CC1)C(=O)O; Ala(piperidin-4-yl) = O=C([C@H](CC1CCN([*:3])CC1)N[*:1])[*:2]; X1 = CC(C)[C@H](N[*:1])C(=O)C[C@@H](Cc1ccc(O)cc1)C(=O)[*:2]; DOTA = O=C(O)CN1CCN(CC(=O)O)CCN(CC(=O)*)CCN(CC(=O)O)CC1; Trp(5-F) = N[C@@H](Cc1c[nH]c2ccc(F)cc12)C(=O)O; X2 = C[C@@H](c1ccccc1)[C@H](N[*:1])C(=O)[*:2]; Val(3-OH) = CC(C)(O)[C@H](N)C(=O)O; PEG4 = NCCOCCOCCOCCOCCC(=O)O; Tle = CC(C)(C)[C@H](N)C(=O)O; hLeu = CC(C)CC[C@H](N)C(=O)O

In the case of `CC(=O)N[C@@H](CCC(C)C)C(=O)N[C@@H](Cc1ccc(O)cc1)C(=O)N[C@H]1CSSC[C@@H](C(=O)N[C@@H](Cc2c[nH]c3ccc(F)cc23)C(=O)N[C@H](C(=O)N[C@H](C(=O)N[C@H](CCC(=O)O)C(N)=O)C(C)(C)O)[C@@H](C)c2ccccc2)NC(=O)[C@H](Cc2ccc(O)cc2)CC(=O)[C@H](C(C)C)NC(=O)[C@H](CC(=O)O)NC(=O)[C@H](CC2CCN(C(=O)CCOCCOCCOCCOCCNC(=O)CN3CCN(CC(=O)O)CCN(CC(=O)O)CCN(CC(=O)O)CC3)CC2)NC(=O)[C@H](CC2CCN(CC(=O)O)CC2)NC(=O)CNC(=O)[C@H](C(C)(C)C)NC1=O` [Compound 496] (Ac-[hLeu]YC[Tle]G[Ala(1-CH2CO2H-4-piperidyl)][Ala(piperidin-4-yl)]([PEG4-DOTA])D[X1]C[Trp(5-F)][X2][Val(3-OH)][dE]-NH2; disulfide 3-10), where the note is “B7-H3 (41 g) vs 21 g isoform”, the “selectivity over the 21 g isoform” value is reported as “selectivity over the 21 g isoform”. Further, for the setting “B7-H3 (41 g), the predominant form expressed by tumor cells”, the binding affinity result is “high affinity”.
